{"source": "patent US11345708B2", "about": "“Substituted imidazo[1,2-a]imidazoles as modulators of metabotropic glutamate receptor 4 activity” (Hoffmann-La Roche Inc., priority 2017, dated 2022)", "target": "T1, human mGlu4 receptor (Homo sapiens, UniProt Q14833)", "T1 construct": "expressed in transfected cells; host or cells: HEK-293 (monoclonal, stably transfected)", "T1 sequence (Q14833 33-912)": "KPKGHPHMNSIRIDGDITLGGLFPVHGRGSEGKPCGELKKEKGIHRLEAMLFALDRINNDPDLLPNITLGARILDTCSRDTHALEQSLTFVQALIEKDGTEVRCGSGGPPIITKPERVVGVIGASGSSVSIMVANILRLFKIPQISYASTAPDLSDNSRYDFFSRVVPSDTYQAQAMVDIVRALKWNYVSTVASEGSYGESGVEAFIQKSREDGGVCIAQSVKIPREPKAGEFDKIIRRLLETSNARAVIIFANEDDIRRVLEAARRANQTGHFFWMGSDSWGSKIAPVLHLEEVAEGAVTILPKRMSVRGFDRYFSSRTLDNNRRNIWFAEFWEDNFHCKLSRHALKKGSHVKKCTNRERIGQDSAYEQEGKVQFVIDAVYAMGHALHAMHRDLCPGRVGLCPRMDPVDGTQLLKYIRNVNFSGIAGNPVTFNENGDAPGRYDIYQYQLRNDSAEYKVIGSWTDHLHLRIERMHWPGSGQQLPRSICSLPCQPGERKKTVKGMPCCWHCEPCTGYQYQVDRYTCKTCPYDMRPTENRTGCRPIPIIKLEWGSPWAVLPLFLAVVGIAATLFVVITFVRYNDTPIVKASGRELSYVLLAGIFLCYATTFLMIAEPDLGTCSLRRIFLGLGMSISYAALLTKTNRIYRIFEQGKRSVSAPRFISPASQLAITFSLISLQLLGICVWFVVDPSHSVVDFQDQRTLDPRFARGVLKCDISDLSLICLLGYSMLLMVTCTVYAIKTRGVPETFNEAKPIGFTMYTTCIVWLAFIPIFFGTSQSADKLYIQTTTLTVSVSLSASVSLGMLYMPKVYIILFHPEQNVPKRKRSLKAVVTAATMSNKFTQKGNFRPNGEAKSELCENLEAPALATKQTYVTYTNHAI", "test": "Ca2+ mobilization in vitro assay on recombinant human mGlu4 expressed in HEK293 cells", "format": "cell-based", "details": "HEK-293 cells stably expressing human mGlu4; L-AP4 added at EC20; Fluo-4 fluorescence; read-out: EC50 (uM) mGlu4 PAM", "procedure": "Determination of EC50 Values Using a Ca2+ Mobilization In Vitro Assay on Recombinant Human mGlu4 Expressed in HEK293 Cells:\nA monoclonal HEK-293 cell line stably transfected with a cDNA encoding for the human mGlu4 receptor was generated; for the work with mGlu4 Positive Allosteric Modulators (PAMs), a cell line with low receptor expression levels and low constitutive receptor activity was selected to allow the differentiation of agonistic versus PAM activity. Cells were cultured according to standard protocols (Freshney, 2000) in Dulbecco's Modified Eagle Medium with high glucose supplemented with 1 mM glutamine, 10% (vol/vol) heat-inactivated bovine calf serum, Penicillin/Streptomycin, 50 μg/ml hygromycin and 15 μg/ml blasticidin (all cell culture reagents and antibiotics from Invitrogen, Basel, Switzerland).\nAbout 24 hrs before an experiment, 5×10^4 cells/well were seeded in poly-D-lysine coated, black/clear-bottomed 96-well plates. The cells were loaded with 2.5 μM Fluo-4 AM in loading buffer (1×HBSS, 20 mM HEPES) for 1 hr at 37° C. and washed five times with loading buffer. The cells were transferred into a Functional Drug Screening System 7000 (Hamamatsu, Paris, France), and 11 half logarithmic serial dilutions of test compound at 37° C. were added and the cells were incubated for 10-30 min. with on-line recording of fluorescence. Following this pre-incubation step, the agonist (2S)-2-amino-4-phosphonobutanoic acid (L-AP4) was added to the cells at a concentration corresponding to EC20 with on-line recording of fluorescence; in order to account for day-to-day variations in the responsiveness of cells, the EC20 of L-AP4 was determined immediately ahead of each experiment by recording of a full dose-response curve of L-AP4.\nResponses were measured as peak increase in fluorescence minus basal (i.e. fluorescence without addition of L-AP4), normalized to the maximal stimulatory effect obtained with saturating concentrations of L-AP4. Graphs were plotted with the % maximal stimulatory using XLfit, a curve fitting program that iteratively plots the data using Levenburg Marquardt algorithm. The single site competition analysis equation used was y=A+((B−A)/(1+((x/C)D))), where y is the % maximal stimulatory effect, A is the minimum y, B is the maximum y, C is the EC50, x is the log 10 of the concentration of the competing compound and D is the slope of the curve (the Hill Coefficient). From these curves the EC50 (drug concentration at which 50% of the maximal receptor activation was achieved), the Hill coefficient as well as the maximal response in % of the maximal stimulatory effect obtained with saturating concentrations of L-AP4 were calculated (see Fig. 1).\nA depression of the signal observed after addition of the EC20 concentration of L-AP4 was indicative of an inhibitory activity of the test compound.", "data": [{"smiles": "O=C(Nc1cc(F)c(N2C(=O)C3(CC3)n3c(C4(O)COC4)cnc32)c(F)c1)c1ccccn1", "note": "[Example 51, N-[3,5-difluoro-4-[3′-(3-hydroxyoxetan-3-yl)-6′-oxo-spiro[cyclopropane-1,5′-imidazo[1,2-a]imidazole]-7′-yl]phenyl]pyridine-2-carboxamide]", "values": [{"measurement": "EC50", "value": 0.363, "unit": "µM"}]}, {"smiles": "O=C1CCN1c1cnc2n1C1(CC1)C(=O)N2c1c(F)cc(C#Cc2cccnc2)cc1F", "note": "[Example 54, 7′-[2,6-difluoro-4-[2-(3-pyridyl)ethynyl]phenyl]-3′-(2-oxoazetidin-1-yl)spiro[cyclopropane-1,5′-imidazo[1,2-a]imidazole]-6′-one]", "values": [{"measurement": "EC50", "value": 0.808, "unit": "µM"}]}, {"smiles": "CC(O)c1cnc2n1C1(CC1)C(=O)N2c1c(F)cc(C#Cc2ccccc2)cc1F", "note": "(centres unmarked) [Example 59, 7′-[2,6-difluoro-4-(2-phenylethynyl)phenyl]-3′-(1-hydroxyethyl)spiro[cyclopropane-1,5′-imidazo[1,2-a]imidazole]-6′-one]", "values": [{"measurement": "EC50", "value": 0.824, "unit": "µM"}]}, {"smiles": "CC1C(=O)N(c2c(F)cc(C#Cc3ccccc3)cc2F)c2nccn21", "note": "(single isomer, unassigned; enantiomer 1) [Example 3, 1-(2,6-difluoro-4-(phenylethynyl)phenyl)-3-methyl-1H-imidazo[1,2-a]imidazol-2(3H)-one (enantiomer 1)]", "values": [{"measurement": "EC50", "value": 0.453, "unit": "µM"}]}, {"smiles": "Cc1cnc2n1C1(CC1)C(=O)N2c1c(F)cc(C#Cc2cccnc2)cc1F", "note": "[Example 49, 7′-[2,6-difluoro-4-[2-(3-pyridyl)ethynyl]phenyl]-3′-methyl-spiro[cyclopropane-1,5′-imidazo[1,2-a]imidazole]-6′-one]", "values": [{"measurement": "EC50", "value": 0.829, "unit": "µM"}]}, {"smiles": "Cn1cnc(-c2cnc3n2C2(CC2)C(=O)N3c2c(F)cc(C#Cc3cccnc3)cc2F)c1", "note": "[Example 20, 7′-[2,6-difluoro-4-[2-(3-pyridyl)ethynyl]phenyl]-3′-(1-methylimidazol-4-yl)spiro[cyclopropane-1,5′-imidazo[1,2-a]imidazole]-6′-one]", "values": [{"measurement": "EC50", "value": 0.442, "unit": "µM"}]}, {"smiles": "Cn1cc(-c2cnc3n2C(C)(C)C(=O)N3c2c(F)cc(C#Cc3ccccc3)cc2Cl)cn1", "note": "[Example 34, 1-(2-chloro-6-fluoro-4-(phenylethynyl)phenyl)-3,3-dimethyl-5-(1-methyl-1H-pyrazol-4-yl)-1H-imidazo[1,2-a]imidazol-2(3H)-one]", "values": [{"measurement": "EC50", "value": 0.195, "unit": "µM"}]}, {"smiles": "O=C1N(c2c(F)cc(C#Cc3ccccc3)cc2F)c2ncc(CO)n2C12CC2", "note": "[Example 55, 7′-[2,6-difluoro-4-(2-phenylethynyl)phenyl]-3′-(hydroxymethyl)spiro[cyclopropane-1,5′-imidazo[1,2-a]imidazole]-6′-one]", "values": [{"measurement": "EC50", "value": 0.294, "unit": "µM"}]}, {"smiles": "CC(C)(C)c1cnn(-c2cc(F)c(N3C(=O)C4(CC4)n4c(-c5ccccn5)cnc43)c(F)c2)c1", "note": "[Example 19, 7′-[4-(4-tert-butylpyrazol-1-yl)-2,6-difluoro-phenyl]-3′-(2-pyridyl)spiro[cyclopropane-1,5′-imidazo[1,2-a]imidazole]-6′-one]", "values": [{"measurement": "EC50", "value": 0.426, "unit": "µM"}]}, {"smiles": "O=C1N(c2c(F)cc(N3CCN(CC(F)(F)F)CC3)cc2F)c2ncc(-c3cc[nH]n3)n2C12CC2", "note": "[Example 42, 7′-[2,6-difluoro-4-[4-(2,2,2-trifluoroethyl)piperazin-1-yl]phenyl]-3′-(1H-pyrazol-3-yl)spiro[cyclopropane-1,5′-imidazo[1,2-a]imidazole]-6′-one]", "values": [{"measurement": "EC50", "value": 0.417, "unit": "µM"}]}, {"smiles": "CC1(C)C(=O)N(c2c(F)cc(C#Cc3ccccc3)cc2F)c2ncc(I)n21", "note": "[Example 8, 1-(2,6-difluoro-4-(phenylethynyl)phenyl)-5-iodo-3,3-dimethyl-1H-imidazo[1,2-a]imidazol-2(3H)-one]", "values": [{"measurement": "EC50", "value": 0.418, "unit": "µM"}]}, {"smiles": "O=C(Nc1cc(F)c(N2C(=O)C3(CC3)n3ccnc32)c(F)c1)c1ccccn1", "note": "[Example 7, N-[3,5-difluoro-4-(6′-oxospiro[cyclopropane-1,5′-imidazo[1,2-a]imidazole]-7′-yl)phenyl]pyridine-2-carboxamide]", "values": [{"measurement": "EC50", "value": 0.541, "unit": "µM"}]}, {"smiles": "O=C(Nc1ccccn1)c1cc(F)c(N2C(=O)C3(CC3)n3c(-c4ccccn4)cnc32)c(F)c1", "note": "[Example 22, 3,5-difluoro-4-[6′-oxo-3′-(2-pyridyl)spiro[cyclopropane-1,5′-imidazo[1,2-a]imidazole]-7′-yl]-N-(2-pyridyl)benzamide]", "values": [{"measurement": "EC50", "value": 0.61, "unit": "µM"}]}, {"smiles": "CC(F)(F)c1ccc(-c2cc(F)c(N3C(=O)C4(CC4)n4ccnc43)c(F)c2)cc1", "note": "[Example 6, 1′-(4′-(1,1-difluoroethyl)-3,5-difluoro-[1,1′-biphenyl]-4-yl)spiro[cyclopropane-1,3′-imidazo[1,2-a]imidazol]-2′(1′H)-one]", "values": [{"measurement": "EC50", "value": 0.383, "unit": "µM"}]}, {"smiles": "Cc1cnc2n1C1(CC1)C(=O)N2c1c(F)cc(NC(=O)c2ccccn2)cc1F", "note": "[Example 48, N-[3,5-difluoro-4-(3′-methyl-6′-oxo-spiro[cyclopropane-1,5′-imidazo[1,2-a]imidazole]-7′-yl)phenyl]pyridine-2-carboxamide]", "values": [{"measurement": "EC50", "value": 0.377, "unit": "µM"}]}, {"smiles": "O=C1N(c2c(F)cc(C#Cc3ccccc3)cc2F)c2ncc(-c3ccccn3)n2C12CC2", "note": "[Example 12, 3-[2,6-Difluoro-4-(2-phenylethynyl)phenyl]-6-(pyridin-2-yl)-2,3-dihydrospiro[[1,3]diazolo[1,2-a]imidazole-1,1′-cyclopropane]-2-one]", "values": [{"measurement": "EC50", "value": 0.076, "unit": "µM"}]}, {"smiles": "O=C1N(c2c(F)cc(C#Cc3ccccc3)cc2F)c2ncc(-c3cn[nH]c3)n2C12CC2", "note": "[Example 41, 3-[2,6-Difluoro-4-(2-phenylethynyl)phenyl]-6-(1H-pyrazol-4-yl)-2,3-dihydrospiro[[1,3]diazolo[1,2-a]imidazole-1,1′-cyclopropane]-2-one]", "values": [{"measurement": "EC50", "value": 0.238, "unit": "µM"}]}, {"smiles": "Cn1ccc(-c2cnc3n2C2(CC2)C(=O)N3c2c(F)cc(-c3ccc(OC(F)F)cc3)cc2F)n1", "note": "[Example 45, 7′-[4-[4-(difluoromethoxy)phenyl]-2,6-difluoro-phenyl]-3′-(1-methylpyrazol-3-yl)spiro[cyclopropane-1,5′-imidazo[1,2-a]imidazole]-6′-one]", "values": [{"measurement": "EC50", "value": 0.621, "unit": "µM"}]}, {"smiles": "CC(C)(C)c1cnn(-c2cc(F)c(N3C(=O)C4(CC4)n4c(-c5ccncn5)cnc43)c(F)c2)c1", "note": "[Example 15, 7′-[4-(4-tert-butylpyrazol-1-yl)-2,6-difluoro-phenyl]-3′-pyrimidin-4-yl-spiro[cyclopropane-1,5′-imidazo[1,2-a]imidazole]-6′-one]", "values": [{"measurement": "EC50", "value": 0.232, "unit": "µM"}]}, {"smiles": "CC1(C)C(=O)N(c2c(F)cc(C#Cc3ccccc3)cc2Cl)c2ncc(I)n21", "note": "[Example 10, 1-(2-chloro-6-fluoro-4-(phenylethynyl)phenyl)-5-iodo-3,3-dimethyl-1H-imidazo[1,2-a]imidazol-2(3H)-one]", "values": [{"measurement": "EC50", "value": 0.371, "unit": "µM"}]}, {"smiles": "CC(F)(F)c1ccc(-c2cc(F)c(N3C(=O)C4(CC4)n4c(-c5cc[nH]n5)cnc43)c(F)c2)cc1", "note": "[Example 40, 1′-(4′-(1,1-difluoroethyl)-3,5-difluoro-[1,1′-biphenyl]-4-yl)-5′-(1H-pyrazol-3-yl)spiro[cyclopropane-1,3′-imidazo[1,2-a]imidazol]-2′(1′H)-one]", "values": [{"measurement": "EC50", "value": 0.206, "unit": "µM"}]}, {"smiles": "Cn1nccc1-c1cnc2n1C1(CC1)C(=O)N2c1c(F)cc(C#Cc2cccnc2)cc1F", "note": "[Example 46, 7′-[2,6-difluoro-4-[2-(3-pyridyl)ethynyl]phenyl]-3′-(2-methylpyrazol-3-yl)spiro[cyclopropane-1,5′-imidazo[1,2-a]imidazole]-6′-one]", "values": [{"measurement": "EC50", "value": 0.673, "unit": "µM"}]}, {"smiles": "CC(O)c1cnc2n1C1(CC1)C(=O)N2c1c(F)cc(NC(=O)c2ccccn2)cc1F", "note": "(centres unmarked) [Example 57, N-[3,5-difluoro-4-[3′-(1-hydroxyethyl)-6′-oxo-spiro[cyclopropane-1,5′-imidazo[1,2-a]imidazole]-7′-yl]phenyl]pyridine-2-carboxamide]", "values": [{"measurement": "EC50", "value": 0.572, "unit": "µM"}]}, {"smiles": "CC(C)(C)c1cnn(-c2cc(F)c(N3C(=O)C4(CC4)n4c(C5(O)COC5)cnc43)c(F)c2)c1", "note": "[Example 52, 7′-[4-(4-tert-butylpyrazol-1-yl)-2,6-difluoro-phenyl]-3′-(3-hydroxyoxetan-3-yl)spiro[cyclopropane-1,5′-imidazo[1,2-a]imidazole]-6′-one]", "values": [{"measurement": "EC50", "value": 0.905, "unit": "µM"}]}, {"smiles": "CC1(C)C(=O)N(c2c(F)cc(C#Cc3ccccc3)cc2F)c2ncc(-c3ccccc3)n21", "note": "[Example 31, 1-(2,6-difluoro-4-(phenylethynyl)phenyl)-3,3-dimethyl-5-phenyl-1H-imidazo[1,2-a]imidazol-2(3H)-one]", "values": [{"measurement": "EC50", "value": 0.243, "unit": "µM"}]}, {"smiles": "O=C1N(c2c(F)cc(C#Cc3ccccc3)cc2F)c2ncc(-c3cncnc3)n2C12CC2", "note": "[Example 38, 3-[2,6-Difluoro-4-(2-phenylethynyl)phenyl]-6-(pyrimidin-5-yl)-2,3-dihydrospiro[[1,3]diazolo[1,2-a]imidazole-1,1′-cyclopropane]-2-one]", "values": [{"measurement": "EC50", "value": 0.331, "unit": "µM"}]}]}
